# Measured values reported in ChEMBL document CHEMBL3407404, “Cyclopentyl-pyrimidine based analogues as novel and potent IGF-1R inhibitor” (Eur J Med Chem, 2015).
# Columns and labels:
# [1] = target: Insulin-like growth factor 1 receptor (Homo sapiens, UniProt P08069); experiment: Inhibition of IGF1R (unknown origin) using poly-G1 as substrate incubated for 10 mins prior to substrate addition measured after 1 hr by time-resolved fluorescence assay
# Insulin receptor = Insulin receptor (Homo sapiens, UniProt P06213); experiment: Inhibition of IR (unknown origin) using poly-G1 as substrate incubated for 10 mins prior to substrate addition measured after 1 hr by time-resolved fluorescence assay
# Sequence of Insulin receptor (P06213 28-758 limits assumed): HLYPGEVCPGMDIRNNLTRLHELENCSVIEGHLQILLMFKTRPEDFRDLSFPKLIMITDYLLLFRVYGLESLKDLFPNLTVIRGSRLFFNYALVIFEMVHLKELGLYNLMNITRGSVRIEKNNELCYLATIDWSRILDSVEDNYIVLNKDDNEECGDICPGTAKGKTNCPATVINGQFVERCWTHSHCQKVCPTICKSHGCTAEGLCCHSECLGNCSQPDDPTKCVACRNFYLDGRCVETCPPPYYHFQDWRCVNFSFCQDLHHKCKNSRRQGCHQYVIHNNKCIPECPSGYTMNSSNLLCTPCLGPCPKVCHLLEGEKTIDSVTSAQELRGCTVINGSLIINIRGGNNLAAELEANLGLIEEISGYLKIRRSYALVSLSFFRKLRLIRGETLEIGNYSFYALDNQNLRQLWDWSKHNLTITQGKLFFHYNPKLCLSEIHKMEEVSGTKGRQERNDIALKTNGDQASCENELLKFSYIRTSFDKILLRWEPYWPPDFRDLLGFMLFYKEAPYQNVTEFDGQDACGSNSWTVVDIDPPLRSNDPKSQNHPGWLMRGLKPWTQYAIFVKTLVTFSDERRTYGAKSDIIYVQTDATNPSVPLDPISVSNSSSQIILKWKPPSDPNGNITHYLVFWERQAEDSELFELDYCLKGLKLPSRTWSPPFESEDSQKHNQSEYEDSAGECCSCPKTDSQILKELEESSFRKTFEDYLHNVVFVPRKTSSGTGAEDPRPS
# Sequence of Insulin receptor (P06213 763-1382 limits assumed): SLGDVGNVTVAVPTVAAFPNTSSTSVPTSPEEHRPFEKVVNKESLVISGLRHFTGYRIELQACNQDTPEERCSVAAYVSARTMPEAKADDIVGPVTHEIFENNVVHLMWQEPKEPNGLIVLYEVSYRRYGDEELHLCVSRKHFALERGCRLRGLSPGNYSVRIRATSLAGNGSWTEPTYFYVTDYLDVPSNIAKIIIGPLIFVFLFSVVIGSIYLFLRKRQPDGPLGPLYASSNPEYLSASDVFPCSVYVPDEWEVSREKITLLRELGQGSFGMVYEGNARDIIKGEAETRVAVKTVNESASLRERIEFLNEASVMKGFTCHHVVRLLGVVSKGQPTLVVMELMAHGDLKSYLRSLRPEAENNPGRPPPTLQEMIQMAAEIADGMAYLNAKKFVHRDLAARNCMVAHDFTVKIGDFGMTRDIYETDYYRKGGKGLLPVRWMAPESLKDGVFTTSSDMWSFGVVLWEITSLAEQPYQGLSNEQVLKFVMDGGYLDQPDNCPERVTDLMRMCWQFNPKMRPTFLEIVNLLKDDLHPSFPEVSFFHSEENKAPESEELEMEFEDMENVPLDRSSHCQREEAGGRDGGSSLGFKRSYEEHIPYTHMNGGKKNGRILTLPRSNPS
# [2] = Growth inhibition of human H460 cells after 48 hrs by propidium iodide staining-based fluorescence assay; assay type: functional, cell-based; settings: NCI-H460, 48 h
# A-431 = experiment: Growth inhibition of human A431 cells after 48 hrs by propidium iodide staining-based fluorescence assay; assay type: functional, cell-based; settings: A-431, 48 h
# [3] = Growth inhibition of human HCT116 cells after 48 hrs by propidium iodide staining-based fluorescence assay; assay type: functional, cell-based; settings: HCT-116, 48 h
# [4] = Growth inhibition of human COLO205 cells after 48 hrs by propidium iodide staining-based fluorescence assay; assay type: functional, cell-based; settings: COLO 205, 48 h
# MDA-MB-231 = experiment: Growth inhibition of human MDA-MB-231 cells after 48 hrs by propidium iodide staining-based fluorescence assay; assay type: functional, cell-based; settings: MDA-MB-231, 48 h
# MCF7 = experiment: Growth inhibition of human MCF7 cells after 48 hrs by propidium iodide staining-based fluorescence assay; assay type: functional, cell-based; settings: MCF7, 48 h
# NCI-H1975 = experiment: Growth inhibition of human NCI-H1975 cells after 48 hrs by propidium iodide staining-based fluorescence assay; assay type: functional, cell-based; settings: NCI-H1975, 48 h
# [5] = Half life in Sprague-Dawley rat at 10 mg/kg, po; assay type: ADME, organism-based; parameters: dose 10 mg/kg, route oral; settings: in vivo
# [6] = Half life in Sprague-Dawley rat at 2 mg/kg, iv; assay type: ADME, organism-based; parameters: dose 2 mg/kg, route intravenous; settings: in vivo
# [7] = Initial concentration in Sprague-Dawley rat at 2 mg/kg, iv; assay type: ADME, organism-based; parameters: dose 2 mg/kg, route intravenous; settings: in vivo
# [8] = Clearance in Sprague-Dawley rat at 2 mg/kg, iv; assay type: ADME, organism-based; parameters: dose 2 mg/kg, route intravenous; settings: in vivo
# [9] = Volume of distribution at steady state in Sprague-Dawley rat at 2 mg/kg, iv; assay type: ADME, organism-based; parameters: dose 2 mg/kg, route intravenous; settings: in vivo, read-out: Vdss
# [10] = Oral bioavailability in Sprague-Dawley rat at 10 mg/kg; assay type: ADME, organism-based; settings: in vivo
# Sequence of Insulin-like growth factor 1 receptor (P08069 31-736 limits assumed): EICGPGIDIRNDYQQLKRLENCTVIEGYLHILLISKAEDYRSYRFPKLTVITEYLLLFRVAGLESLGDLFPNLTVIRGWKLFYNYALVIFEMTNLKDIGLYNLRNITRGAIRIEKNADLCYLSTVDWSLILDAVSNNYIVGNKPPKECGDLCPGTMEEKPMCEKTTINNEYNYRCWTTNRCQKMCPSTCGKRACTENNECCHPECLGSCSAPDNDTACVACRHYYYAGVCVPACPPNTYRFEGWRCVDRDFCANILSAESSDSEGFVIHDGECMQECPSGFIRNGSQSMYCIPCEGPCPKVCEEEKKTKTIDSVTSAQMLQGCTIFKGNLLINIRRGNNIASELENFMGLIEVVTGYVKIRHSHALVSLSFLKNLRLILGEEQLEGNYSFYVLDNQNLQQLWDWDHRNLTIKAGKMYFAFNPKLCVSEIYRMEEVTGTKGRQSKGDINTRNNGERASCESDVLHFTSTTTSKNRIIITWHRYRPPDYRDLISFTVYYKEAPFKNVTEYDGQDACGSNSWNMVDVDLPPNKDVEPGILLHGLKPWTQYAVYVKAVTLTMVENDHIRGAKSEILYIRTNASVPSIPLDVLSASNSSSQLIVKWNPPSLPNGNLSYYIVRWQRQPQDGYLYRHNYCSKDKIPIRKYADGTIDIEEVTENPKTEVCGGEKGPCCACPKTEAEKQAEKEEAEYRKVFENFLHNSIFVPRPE
# Sequence of Insulin-like growth factor 1 receptor (P08069 741-1367 limits assumed): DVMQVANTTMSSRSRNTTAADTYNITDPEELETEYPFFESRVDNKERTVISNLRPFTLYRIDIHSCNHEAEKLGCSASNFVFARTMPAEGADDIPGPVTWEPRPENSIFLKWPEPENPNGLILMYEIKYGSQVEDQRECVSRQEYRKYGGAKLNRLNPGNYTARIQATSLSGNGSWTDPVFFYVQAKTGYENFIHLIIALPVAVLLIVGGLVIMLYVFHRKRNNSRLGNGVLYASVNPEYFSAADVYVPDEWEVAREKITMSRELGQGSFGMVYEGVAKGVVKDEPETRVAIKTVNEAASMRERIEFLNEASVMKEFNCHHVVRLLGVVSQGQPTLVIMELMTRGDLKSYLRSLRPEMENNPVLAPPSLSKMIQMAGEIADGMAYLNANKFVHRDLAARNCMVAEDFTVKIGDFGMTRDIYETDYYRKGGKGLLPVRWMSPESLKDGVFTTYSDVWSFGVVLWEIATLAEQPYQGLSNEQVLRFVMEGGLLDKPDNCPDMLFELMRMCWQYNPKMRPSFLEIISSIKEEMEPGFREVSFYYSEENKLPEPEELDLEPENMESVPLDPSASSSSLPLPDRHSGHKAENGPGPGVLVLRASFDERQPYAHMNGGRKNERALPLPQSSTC
IC50 ([1]; read-out: IC50),Structure (SMILES),other results
184 nM,CCN(CC)C(=O)C1CCCN(c2nc3c(c(Nc4cc(C5CC5)[nH]n4)n2)CCC3)C1 (centres undefined),–
20 nM,CC1CCN(c2nc3c(c(Nc4cc(C5CC5)[nH]n4)n2)CCC3)CC1,IC50 (Insulin receptor): 110 nM; IC50 [2]: 180 nM; IC50 (A-431): 340 nM; IC50 [3]: 350 nM; IC50 [4]: 2190 nM; IC50 (MDA-MB-231): 700 nM; IC50 (MCF7): 1670 nM; IC50 (NCI-H1975): 3000 nM; half-life [5]: 52.2 min; half-life [6]: 51 min; C0 [7]: 1050 ng/mL; clearance [8]: 59.1 mL/min/kg; Vd [9]: 4.37 L/kg; bioavailability [10]: 11.3%
35 nM,CCOC(=O)C1CCN(c2nc3c(c(Nc4cc(C5CC5)[nH]n4)n2)CCC3)CC1,–
124 nM,N#CC1CCN(c2nc3c(c(Nc4cc(C5CC5)[nH]n4)n2)CCC3)CC1,–
41 nM,c1c(Nc2nc(N3CC4CCC3C4)nc3c2CCC3)n[nH]c1C1CC1 (centres undefined),–
267 nM,c1ccc(CNc2nc3c(c(Nc4cc(C5CC5)[nH]n4)n2)CCC3)cc1,–
149 nM,Cc1ccc(CNc2nc3c(c(Nc4cc(C5CC5)[nH]n4)n2)CCC3)cc1,–
300 nM,CC1CCN(c2nc3c(c(Nc4cc(C(C)(C)C)[nH]n4)n2)CCC3)CC1,–
568 nM,CC(C)(C)c1cc(Nc2nc(N3CCCCCC3)nc3c2CCC3)n[nH]1,–
1500 nM,CC1CCN(c2nc(Nc3cc(C4CC4)[nH]n3)c3c(n2)C(C)(C)CC3)CC1,–
2800 nM,CC1CCN(c2nc(Nc3cc(C4CC4)[nH]n3)c3c(n2)C2(CCCC2)CC3)CC1,–

# The next lines start with the compound.
Structure (SMILES),IC50 ([1]; read-out: IC50),other results
Cc1cc(Nc2nc(N3CCC(C)CC3)nc3c2CCC3)n[nH]1,–,IC50 [1]: Not Active
CN(C)CCN(C)c1nc2c(c(Nc3cc(C4CC4)[nH]n3)n1)CCC2,> 1000 nM,–
c1c(Nc2nc(N3CCNCC3)nc3c2CCC3)n[nH]c1C1CC1,> 1000 nM,–
c1c(Nc2nc(N3CCCCC3)nc3c2CCC3)n[nH]c1C1CC1,32 nM,–
OCC1CCCN(c2nc3c(c(Nc4cc(C5CC5)[nH]n4)n2)CCC3)C1 (centres undefined),90 nM,–
CC1(C)CCN(c2nc3c(c(Nc4cc(C5CC5)[nH]n4)n2)CCC3)CC1,203 nM,–
O=C(O)C1CCN(c2nc3c(c(Nc4cc(C5CC5)[nH]n4)n2)CCC3)CC1,> 1000 nM,–
c1c(Nc2nc(N3CCCCCC3)nc3c2CCC3)n[nH]c1C1CC1,10 nM,–
c1c(Nc2nc(N3CCCCCCC3)nc3c2CCC3)n[nH]c1C1CC1,58 nM,–
CC1CCN(c2nc3c(c(Nc4cc(-c5ccccc5)[nH]n4)n2)CCC3)CC1,> 1000 nM,–
c1ccc(-c2cc(Nc3nc(N4CCCCCC4)nc4c3CCC4)n[nH]2)cc1,> 1000 nM,–
c1ccc(-c2nc3c(c(Nc4cc(C5CC5)[nH]n4)n2)CCC3)cc1,97 nM,–
Cc1cc(Nc2nc(N3CCCCC3)nc3c2CCC3)n[nH]1,442 nM,–
Cc1cc(Nc2nc(N3CCCCCC3)nc3c2CCC3)n[nH]1,2000 nM,–
CCOC(=O)C1CCCN(c2nc3c(c(Nc4cc(C)[nH]n4)n2)CCC3)C1 (centres undefined),970 nM,–
CC(C)(C)c1cc(Nc2nc(N3CCCCC3)nc3c2CCC3)n[nH]1,251 nM,–
CCOC(=O)C1CCCN(c2nc3c(c(Nc4cc(C(C)(C)C)[nH]n4)n2)CCC3)C1 (centres undefined),108 nM,–
CC1CCN(c2nc(Nc3cc(C4CC4)[nH]n3)c3c(n2)C2CCC3C2)CC1 (centres undefined),1190 nM,–
CC1CCN(c2nc(Nc3cc(C4CC4)[nH]n3)c3c(n2)C(F)(F)CC3)CC1,786 nM,–
